Where “and” joins values, the source holds several entries; their conditions need not be identical. Identical values can stand only once. Like-named read-outs stand apart in the source and are kept apart here. Values belong to the compound of their own block, whether it stands above or below them.
How the values were obtained:
[1] = target: T1, R108Q variant of human PGHS-1 (Homo sapiens, UniProt P23219, R108Q); assay: COX kinetic parameters, oxygen uptake vs arachidonate; assay type: biochemical
T1 sequence (P23219 24-599 R108Q): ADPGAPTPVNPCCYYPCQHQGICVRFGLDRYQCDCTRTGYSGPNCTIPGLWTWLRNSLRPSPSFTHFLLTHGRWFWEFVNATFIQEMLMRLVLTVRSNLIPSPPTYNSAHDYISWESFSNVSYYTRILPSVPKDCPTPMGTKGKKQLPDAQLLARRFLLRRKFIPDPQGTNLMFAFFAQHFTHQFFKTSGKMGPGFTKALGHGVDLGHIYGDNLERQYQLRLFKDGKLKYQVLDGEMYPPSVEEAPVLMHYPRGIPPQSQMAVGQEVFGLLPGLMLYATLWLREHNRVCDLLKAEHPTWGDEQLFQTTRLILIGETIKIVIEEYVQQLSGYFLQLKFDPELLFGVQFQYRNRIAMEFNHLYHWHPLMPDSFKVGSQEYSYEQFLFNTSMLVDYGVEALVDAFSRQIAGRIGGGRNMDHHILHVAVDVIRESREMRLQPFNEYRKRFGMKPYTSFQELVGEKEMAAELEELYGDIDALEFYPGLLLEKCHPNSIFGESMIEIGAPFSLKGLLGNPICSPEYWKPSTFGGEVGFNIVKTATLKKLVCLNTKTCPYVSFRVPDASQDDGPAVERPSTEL

[2] = target: T2, PGHS-1 V481I variant (Homo sapiens, UniProt P23219, V481I); assay: as above; assay type: biochemical; settings: read-out: COX Km (μM arachidonate), 0.025% Tween 20, 37 °C
T2 sequence (P23219 24-599 V481I): as the sequence (P23219 24-599 R108Q) above, with Q85R, V458I counted along it

[3] = target: T3, PGHS-1 L237M variant (Homo sapiens, UniProt P23219, L237M); assay: as above; assay type: biochemical; settings: read-out: COX Km (μM arachidonate), 0.025% Tween 20, 37 °C
T3 sequence (P23219 24-599 L237M): as the sequence (P23219 24-599 R108Q) above, with Q85R, L214M counted along it

[4] = target: T4, wildtype human PGHS-1 (Homo sapiens, UniProt P23219); assay: as above; assay type: biochemical; settings: read-out: COX Km (μM arachidonate), WT, 37 °C, 100 μM HOOH
T4 sequence (P23219 24-599): as the sequence (P23219 24-599 R108Q) above, with Q85R counted along it

[5] = target: T2, PGHS-1 V481I variant; assay: Timed preincubation with aspirin, decay of surviving COX activity; assay type: biochemical; settings: 37 °C, preincubation with 0.4-5.3 mM aspirin, average ± SD
[6] = ingestion of 500-650 mg aspirin; cited from earlier work
[7] = system: ovine PGHS-1; settings: cited from earlier work
[8] = target: PGHS-1 R53H variant (Homo sapiens, UniProt P23219, R53H); assay: Timed preincubation with aspirin, decay of surviving COX activity; assay type: biochemical; settings: 37 °C, preincubation with 0.4-5.3 mM aspirin, average ± SD
Sequence of PGHS-1 R53H variant (P23219 24-599 R53H): as the sequence (P23219 24-599 R108Q) above, with R30H, Q85R counted along it

[9] = target: T1, R108Q variant of human PGHS-1; assay: as above; assay type: biochemical
[10] = target: T1, R108Q variant of human PGHS-1; assay: Analysis of Ki and k2 values for aspirin; assay type: biochemical; settings: 20 °C, aspirin potassium salt
[11] = target: T4, wildtype human PGHS-1; assay: Timed preincubation with aspirin, decay of surviving COX activity; assay type: biochemical; settings: WT; 37 °C; preincubation with 0.4-5.3 mM aspirin; average ± SD
[12] = target: T3, PGHS-1 L237M variant; assay: as above; assay type: biochemical; settings: 37 °C, preincubation with 0.4-5.3 mM aspirin, average ± SD
[13] = system: PGHS-1; settings: in blood ex vivo; cited from earlier work
[14] = hydrolysis in blood; cited from earlier work
[15] = system: PGHS-1; settings: cited from earlier work
[16] = target: T4, wildtype human PGHS-1; assay: Reversible COX inhibition by NS-398, substrate dependence of COX activity; assay type: biochemical; settings: double reciprocal plot
[17] = system: COX-1; settings: cited from earlier work

Elevated arachidonate Km compared to wildtype [1]: 1.9 fold | Km value above the wildtype value ([1]; 0.165% Tween 20): 50% | Km ([1]; read-out: COX Km (μM arachidonate), 0.025% Tween 20, 37 °C): 2.8 ± 0.4 µM | Km ([1]; read-out: COX Km (μM arachidonate), 0.165% Tween 20, 37 °C): 29.7 ± 3.3 µM | Increase in Km value vs wildtype ([1]; standard conditions): 86% | Km [2]: 1.8 ± 0.2 µM | Km [3]: 1.8 ± 0.3 µM | Km ([4]; 0.025% Tween 20): 1.5 ± 0.4 µM | Km ([4]; 0.165% Tween 20): 19.8 ± 3.7 µM
SMILES: CCCCC/C=C\C/C=C\C/C=C\C/C=C\CCCC(=O)O [arachidonate]

Decrease in k2 (rate constant for acetyl group transfer) vs wildtype [10]: 30% | Increase in Ki for aspirin vs wildtype [10]: 70% | k2/Ki as percent of that for wildtype [10]: 42%
SMILES: CC(=O)Oc1ccccc1C(=O)O [aspirin, acetylsalicylic acid]
Aspirin reactivity (relative), k2'/[aspirin] normalized to wildtype value [5]: 0.82 ± 0.10 (n = 9) p = 0.001 | Peak plasma aspirin level [6]: 30 to 80 µM | Time of plasma aspirin peak [6]: ~ 30 min | Aspirin reactivity ([7]; ovine PGHS-1, 30°C): 0.3 mM⁻¹ min⁻¹ | Ki ([7]; read-out: Ki for aspirin, PGHS-1 (ovine)): ~20 mM and 14 to 20 mM | Aspirin reactivity (relative), k2'/[aspirin] normalized to wildtype value [8]: 0.91 ± 0.07 (n = 9) p = 0.042 | Lower aspirin reactivity compared to wildtype ([9]; R108Q vs wildtype): 60% | k2'/aspirin (≈ k2/Ki) as percent of the wildtype value ([9]; R108Q, 37 °C): 40% | Aspirin reactivity (relative), k2'/[aspirin] normalized to wildtype value ([9]; R108Q, 37 °C, preincubation with 0.4-5.3 mM aspirin, average ± SD): 0.40 ± 0.05 (n = 7) p = 0.0001 | Aspirin reactivity (relative), k2'/[aspirin] normalized to wildtype value [11]: 1.00 ± 0.10 (n = 9) | Aspirin reactivity (relative), k2'/[aspirin] normalized to wildtype value [12]: 0.86 ± 0.05 (n = 9) p = 0.001 | IC50 [13]: 0.002 mM | t1/2 of aspirin in blood [14]: ~ 15 min

Type of COX inhibition [16]: reversible, competitive inhibitor
SMILES: CS(=O)(=O)Nc1ccc([N+](=O)[O-])cc1OC1CCCCC1 [NS-398]
Antagonism of PGHS-1 inactivation by aspirin [15]: potent antagonist | Effect on COX catalysis ([15]; even at low arachidonate levels): lack effect on COX catalysis

SMILES: O=C(O)c1ccccc1O [salicylic acid]
COX-1 inhibition [17]: negligible COX-1 inhibitor

Reference: article PMC3376194 (Pharmacogenetics and Genomics, 2012)
